Measured values: US20230009626A1 (ICHNOS SCIENCES S.A., priority 2018, published 2023)

Target: HPK1 (MAP4K1) (Homo sapiens, UniProt Q92918)
Assay: FRET Assay for HPK1 (MAP4K1): one step binding assay, displacement of labeled tracer
Details: for inhibition at 1 µM: 1 μM compound; for inhibition at 1 µM / inhibition at 10 µM: FRET ratio 665/620, percent of control; for inhibition at 10 µM: 10 μM compound; for IC50: dose response curve, nonlinear regression
Method in brief: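 Percent inhibition at 1.0 and 10.0 μM and IC50 by nonlinear regression were derived from loss of FRET signal versus control. The signal runs from Eu-anti-GST antibody (4 nM) bound to 10 nM HPK1 kinase to Alexa Fluor 647 Kinase Tracer 222 (20 nM), added after a 15-min on-ice compound pre-incubation. Binding then proceeded 1 h at room temperature in HEPES pH 7.5 buffer with 10 mM MgCl2, 1 mM EGTA, 0.01% Brij-35 and 3% DMSO.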

Sequence of HPK1 (MAP4K1) (Q92918 whole entry): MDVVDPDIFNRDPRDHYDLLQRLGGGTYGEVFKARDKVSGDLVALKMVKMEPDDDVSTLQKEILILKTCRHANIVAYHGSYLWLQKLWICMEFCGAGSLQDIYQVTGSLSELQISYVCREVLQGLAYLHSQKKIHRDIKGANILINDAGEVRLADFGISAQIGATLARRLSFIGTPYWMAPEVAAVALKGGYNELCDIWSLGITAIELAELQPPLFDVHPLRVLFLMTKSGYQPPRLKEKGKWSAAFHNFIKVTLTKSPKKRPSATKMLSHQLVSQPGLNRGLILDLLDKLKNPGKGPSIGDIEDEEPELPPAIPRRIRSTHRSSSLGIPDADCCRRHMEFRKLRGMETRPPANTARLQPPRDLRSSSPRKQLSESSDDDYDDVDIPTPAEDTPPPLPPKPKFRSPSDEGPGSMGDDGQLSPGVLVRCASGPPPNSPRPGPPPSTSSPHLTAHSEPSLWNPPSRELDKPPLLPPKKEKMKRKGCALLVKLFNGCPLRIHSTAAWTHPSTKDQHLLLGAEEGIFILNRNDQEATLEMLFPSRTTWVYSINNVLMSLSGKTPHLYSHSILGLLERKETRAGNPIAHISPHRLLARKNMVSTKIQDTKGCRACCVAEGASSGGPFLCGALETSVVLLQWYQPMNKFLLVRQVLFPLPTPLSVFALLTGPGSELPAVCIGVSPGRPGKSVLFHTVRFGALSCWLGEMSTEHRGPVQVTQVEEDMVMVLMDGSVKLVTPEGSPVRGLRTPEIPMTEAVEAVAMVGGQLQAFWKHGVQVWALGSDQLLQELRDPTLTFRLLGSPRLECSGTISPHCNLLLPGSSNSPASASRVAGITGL

| Structure (SMILES) | inhibition at 1 µM [%] | inhibition at 10 µM [%] | IC50 [nM] |
| --- | --- | --- | --- |
| C/C(Nc1ccc(N2CCN(C3COC3)CC2)nc1)=C1/C(=O)Nc2cnc(-c3cnccc3C)cc21 [Example 77, (Z)-5-(4-Methylpyridin-3-yl)-3-(1-((6-(4-(oxetan-3-yl)piperazin-1-yl)pyridin-3-yl)amino)ethylidene)-1H-pyrrolo[2,3-c]pyridin-2(3H)-one] | 73 | 80.3 | < 50 |
| C/C(Nc1cnn(CC(C)(C)O)c1)=C1/C(=O)Nc2cnc(-c3cnccc3C)cc21 [Example 78, (Z)-3-(1-((1-(2-Hydroxy-2-methylpropyl)-1H-pyrazol-4-yl)amino)ethylidene)-5-(4-methylpyridin-3-yl)-1H-pyrrolo[2,3-c]pyridin-2(3H)-one] | 84.2 | 83.1 | < 50 |
| C/C(Nc1ccn(C2CCOCC2)n1)=C1/C(=O)Nc2cnc(-c3cnccc3C)cc21 [Example 83, (Z)-5-(4-Methylpyridin-3-yl)-3-(1-((1-(tetrahydro-2H-pyran-4-yl)-1H-pyrazol-3-yl)amino)ethylidene)-1H-pyrrolo[2,3-c]pyridin-2(3H)-one] | 27.7 | 43.5 | – |
| C/C(Nc1ccc(OC2CCNCC2)nc1)=C1/C(=O)Nc2cnc(-c3cnccc3C)cc21 [Example 84, (Z)-5-(4-Methylpyridin-3-yl)-3-(1-((6-(piperidin-4-yloxy)pyridin-3-yl)amino)ethylidene)-1H-pyrrolo[2,3-c]pyridin-2(3H)-one] | 75.2 | 70.4 | < 50 |
| C/C(NCCN1CCOCC1)=C1/C(=O)Nc2cnc(-c3cnccc3C)cc21 [Example 86, (Z)-5-(4-Methylpyridin-3-yl)-3-(1-((2-morpholinoethyl)amino)ethylidene)-1H-pyrrolo[2,3-c]pyridin-2(3H)-one] | 51.5 | 74 | > 500 |
| C/C(Nc1cnn(C(C)(C)C#N)c1)=C1/C(=O)Nc2cnc(-c3c(C)noc3C)cc21 [Example 88, (Z)-2-(4-((1-(5-(3,5-Dimethylisoxazol-4-yl)-2-oxo-1H-pyrrolo[2,3-c]pyridin-3(2H)-ylidene)ethyl)amino)-1H-pyrazol-1-yl)-2-methylpropanenitrile] | 74.3 | 87.6 | 100 to 500 |
| COc1cccc(F)c1-c1cc2c(cn1)NC(=O)/C2=C(/C)Nc1ccn(C(C)(C)C#N)n1 [Example 93, (Z)-2-(3-((1-(5-(2-Fluoro-6-methoxyphenyl)-2-oxo-1H-pyrrolo[2,3-c]pyridin-3(2H)-ylidene)ethyl)amino)-1H-pyrazol-1-yl)-2-methylpropanenitrile] | 73.8 | 76.4 | < 50 |
| CCS(=O)(=O)n1ccc(N/C(C)=C2\C(=O)Nc3cnc(-c4cnccc4C)cc32)n1 [Example 94, (Z)-3-(1-((1-(Ethylsulfonyl)-1H-pyrazol-3-yl)amino)ethylidene)-5-(4-methylpyridin-3-yl)-1H-pyrrolo[2,3-c]pyridin-2(3H)-one] | 66.8 | 75.4 | < 50 |
| COc1ccncc1-c1cc2c(cn1)NC(=O)/C2=C(/C)Nc1ccn(C(C)(C)C#N)n1 [Example 95, (Z)-2-(3-((1-(5-(4-Methoxypyridin-3-yl)-2-oxo-1H-pyrrolo[2,3-c]pyridin-3(2H)-ylidene)ethyl)amino)-1H-pyrazol-1-yl)-2-methylpropanenitrile] | 75.5 | 75.7 | < 50 |
| C/C(Nc1ccc(N2CCN(C3CC3)CC2)nc1)=C1/C(=O)Nc2cnc(-c3cnccc3C)cc21 [Example 96, (Z)-3-(1-((6-(4-Cyclopropylpiperazin-1-yl)pyridin-3-yl)amino)ethylidene)-5-(4-methylpyridin-3-yl)-1H-pyrrolo[2,3-c]pyridin-2(3H)-one] | 68.6 | 73.5 | < 50 |
| C/C(Nc1ccn(C(C)(C)C#N)n1)=C1/C(=O)Nc2cnc(-c3ccccc3C)cc21 [Example 98, (Z)-2-Methyl-2-(3-((1-(2-oxo-5-(o-tolyl)-1H-pyrrolo[2,3-c]pyridin-3(2H)-ylidene)ethyl)amino)-1H-pyrazol-1-yl)propanenitrile] | 61 | 69 | 50 to 100 |
| C/C(Nc1ccn(C)n1)=C1/C(=O)Nc2ccc(-c3cnccc3C)cc21 [Example 100, (Z)-3-(1-((1-Methyl-1H-pyrazol-3-yl)amino)ethylidene)-5-(4-methylpyridin-3-yl)indolin-2-one] | 72.8 | 77 | < 50 |
| C/C(Nc1ccn(CCN2CCOCC2)n1)=C1/C(=O)Nc2cnc(-c3cnccc3C)cc21 [Example 101, (Z)-5-(4-Methylpyridin-3-yl)-3-(1-((1-(2-morpholinoethyl)-1H-pyrazol-3-yl)amino)ethylidene)-1H-pyrrolo[2,3-c]pyridin-2(3H)-one] | 68 | 81.8 | < 50 |
| C/C(Nc1ccn(C2(C#N)CC2)n1)=C1/C(=O)Nc2cnc(-c3cnccc3C)cc21 [Example 102, (Z)-1-(3-((1-(5-(4-Methylpyridin-3-yl)-2-oxo-1H-pyrrolo[2,3-c]pyridin-3(2H)-ylidene)ethyl)amino)-1H-pyrazol-1-yl)cyclopropanecarbonitrile] | 81.6 | 89.7 | < 50 |

Continued, values first:

| inhibition at 1 µM [%] | inhibition at 10 µM [%] | IC50 [nM] | Structure (SMILES) |
| --- | --- | --- | --- |
| 75.1 | 78 | < 50 | CCS(=O)(=O)n1cc(N/C(C)=C2\C(=O)Nc3cnc(-c4cnccc4C)cc32)cn1 [Example 80, (Z)-3-(1-((1-(Ethylsulfonyl)-1H-pyrazol-4-yl)amino)ethylidene)-5-(4-methylpyridin-3-yl)-1H-pyrrolo[2,3-c]pyridin-2(3H)-one] |
| 73.8 | 82.2 | < 50 | C/C(Nc1ccn(C(F)F)n1)=C1/C(=O)Nc2cnc(-c3cnccc3C)cc21 [Example 81, (Z)-3-(1-((1-(Difluoromethyl)-1H-pyrazol-3-yl)amino)ethylidene)-5-(4-methylpyridin-3-yl)-1H-pyrrolo[2,3-c]pyridin-2(3H)-one] |
| 70.6 | 79.9 | < 50 | COc1cccc(F)c1-c1cc2c(cn1)NC(=O)/C2=C(/C)Nc1cnn(C(C)(C)C#N)c1 [Example 82, (Z)-2-(4-((1-(5-(2-Fluoro-6-methoxyphenyl)-2-oxo-1H-pyrrolo[2,3-c]pyridin-3(2H)-ylidene)ethyl)amino)-1H-pyrazol-1-yl)-2-methylpropanenitrile] |
| 78.2 | – | < 50 | C/C(Nc1cnn(C)c1)=C1/C(=O)Nc2cnc(-c3cncc4c3OCC(=O)N4)cc21 [Example 85, (Z)-8-(3-(1-((1-Methyl-1H-pyrazol-4-yl)amino)ethylidene)-2-oxo-2,3-dihydro-1H-pyrrolo[2,3-c]pyridin-5-yl)-2H-pyrido[4,3-b][1,4]oxazin-3(4H)-one] |
| 83.6 | 84.8 | < 50 | C/C(Nc1cnn(CCN2CCOCC2)c1)=C1/C(=O)Nc2cnc(-c3cnccc3C)cc21 [Example 87, (Z)-5-(4-Methylpyridin-3-yl)-3-(1-((1-(2-morpholinoethyl)-1H-pyrazol-4-yl)amino)ethylidene)-1H-pyrrolo[2,3-c]pyridin-2(3H)-one] |
| 77.3 | 76 | < 50 | C/C(Nc1cnn(C(C)C)c1)=C1/C(=O)Nc2cnc(-c3cnccc3C)cc21 [Example 89, (Z)-3-(1-((1-Isopropyl-1H-pyrazol-4-yl)amino)ethylidene)-5-(4-methylpyridin-3-yl)-1H-pyrrolo[2,3-c]pyridin-2(3H)-one] |
| 72.7 | 75.6 | < 50 | CC(=O)N1CCC(n2cc(N/C(C)=C3\C(=O)Nc4cnc(-c5cnccc5C)cc43)cn2)CC1 [Example 90, (Z)-3-(1-((1-(1-Acetylpiperidin-4-yl)-1H-pyrazol-4-yl)amino)ethylidene)-5-(4-methylpyridin-3-yl)-1H-pyrrolo[2,3-c]pyridin-2(3H)-one] |
| 79.7 | – | < 50 | CC/C(Nc1cnn(C(C)(C)C#N)c1)=C1/C(=O)Nc2cnc(-c3cnccc3C)cc21 [Example 91, (Z)-2-Methyl-2-(4-((1-(5-(4-methylpyridin-3-yl)-2-oxo-1H-pyrrolo[2,3-c]pyridin-3(2H)-ylidene)propyl)amino)-1H-pyrazol-1-yl)propanenitrile] |
| 77 | 80.3 | < 50 | CC/C(Nc1ccn(C(C)(C)C#N)n1)=C1/C(=O)Nc2cnc(-c3cnccc3C)cc21 [Example 92, (Z)-2-Methyl-2-(3-((1-(5-(4-methylpyridin-3-yl)-2-oxo-1H-pyrrolo[2,3-c]pyridin-3(2H)-ylidene)propyl)amino)-1H-pyrazol-1-yl)propanenitrile] |
| 59 | 59.9 | 100 to 500 | C/C(Nc1ccn(C(C)(C)C(N)=O)n1)=C1/C(=O)Nc2cnc(-c3cnccc3C)cc21 [Example 97, (Z)-2-Methyl-2-(3-((1-(5-(4-methylpyridin-3-yl)-2-oxo-1H-pyrrolo[2,3-c]pyridin-3(2H)-ylidene)ethyl)amino)-1H-pyrazol-1-yl)propanamide] |
| 70.1 | 78.6 | 50 to 100 | C/C(Nc1ccn(C(C)C)n1)=C1/C(=O)Nc2cnc(-c3cnccc3C)cc21 [Example 99, (Z)-3-(1-((1-Isopropyl-1H-pyrazol-3-yl)amino)ethylidene)-5-(4-methylpyridin-3-yl)-1H-pyrrolo[2,3-c]pyridin-2(3H)-one] |
